What was measured:
[1] = system: BT3 (ΔPPO) E. coli with CyPPO10m-6 (E225G, G258S, Q266L, T336I, V356F, F360M, A364D, R406G, W419R; SEQ ID NO: 131); assay: Growth of BT3 with error-prone PCR mutant of CyPPO10; format: cell-based; settings: up to 200 μM herbicide
[2] = system: CyPPO13 (Synechococcus sp. JA-3-3Ab PPO, SEQ ID NO: 4) variant F373M, MBP fusion; assay: PPO inhibition assay; format: biochemical; settings: herbicide 0-5,000 nM, 50 μM substrate
[3] = system: soybean transformed with CyPPO10 A167L+F360M; assay: Herbicide tolerance of soybean; format: in vivo
[4] = system: A. thaliana T3 lines with CyPPO10 wild type or mutants (F360M, F360I, F360L, F360C, A167C), CyPPO13 wild type or mutants (F373M, F373C, F373I, A177C …); assay: Seed germination of A. thaliana transformants on herbicide media; format: in vivo, Arabidopsis thaliana; settings: 7 days
[5] = system: PPO-deficient BT3 E. coli (ΔPPO) with CyPPO13 wild type (Cy13 WT, SEQ ID NO: 4); assay: Growth of transformed BT3 (ΔPPO) on tiafenacil media; format: cell-based
Method: (§1) After transforming PPO-deficient BT3 E. coli (ΔPPO) with CyPPO10 or CyPPO13, the transformed BT3 (ΔPPO) was cultured on LB agar plates containing PPO-inhibiting herbicide to examine the growth level of the transformed BT3 (ΔPPO). BT3 (ΔPPO) strain was obtained from Hokkaido University (Japan). The BT3 (ΔPPO) strain is deficient in hemG-type PPO and has kanamycin tolerance (refer to “Watanabe et al., Dual targeting of spinach protoporphyrinogen oxidase II to mitochondria and chloroplasts by alternative use of two in-frame […], JBC 2001 276(23):20474-20481; Che et al., Molecular Characterization and Subcellular Localization of Protoporphyrinogen Oxidase in Spinach Chloroplasts, Plant Physiol. 2000 September; 124(1):59-70”).
(§2) CyPPO10 and CyPPO13 genes were cloned in pACBB vector (Plasmid #32551; Addgene; refer to FIG. 1).
(§3) For seed culture of E. coli transformed with respective genes, each single colony of E. coli transformant as provided above was cultured in 3 ml of LB broth containing chloramphenicol overnight (220 rpm, 37° C.), and 50 to 100 μl were subcultured in a new 3 ml of LB broth, and they were cultured until absorbance (OD600) became 0.5 to 1, and they were diluted with LB broth to absorbance (OD600) of 0.5. The diluted solution was serially diluted again 5 times by a factor of one tenth with LB broth. […] The LB Agar media were incubated at 37° C., under light condition, and level of inhibiting growth was observed after 16 to 20 hours of incubation.

[6] = system: PPO-deficient BT3 E. coli (ΔPPO) with CyPPO10 wild type (Cy10 WT, SEQ ID NO: 2); assay: as above; format: cell-based
Method: as §1, §2, §3

`COC(=O)CCNC(=O)C(C)Sc1cc(-n2c(=O)cc(C(F)(F)F)n(C)c2=O)c(F)cc1Cl` (stereo not shown) [Tiafenacil] was tested, and the cell viability [1] was “cell viability similar to that of cells with wild type CyPPO10”, the IC50 [2] was 56 nM and the leaf damage ([3]; T0, 15 μM painted on leaves) was “no damage”. The damage level ([3]; T1, 25 μM tiafenacil spray, 5 days) was “no damage”, the seed germination ([4]; 25 μM glufosinate+30 nM tiafenacil+40 nM saflufenacil) was “germinated” and the seed germination ([4]; 25 μM glufosinate+70 nM tiafenacil) was “germinated”. For the same compound, the growth ([5]; 100 μM tiafenacil) was “at the similar level to that of the medium containing no tiafenacil”, the growth ([5]; 400 μM tiafenacil) was “grew well” and the growth ([6]; 100 μM tiafenacil) was “at the similar level to that of the medium containing no tiafenacil”. For the same compound, the growth ([6]; 400 μM tiafenacil) was “grew well”.

— patent US11466286B2, “Methods and compositions for conferring and/or enhancing herbicide tolerance using protoporphyrinogen oxidase or variant thereof” (FarmHannong Co., Ltd., priority 2016, dated 2022)
